# Key:
# [1] = biological target: T1, human orexin 1 receptor (Homo sapiens, UniProt O43613); assay: Radioligand binding assay ([3H]-SB649868 competition), human orexin 1 receptor; settings: radioligand [3H]-SB649868; read-out: Binding hOx1R Kd
# T1 construct: expressed in transfected cells
# T1 sequence (O43613 1-425): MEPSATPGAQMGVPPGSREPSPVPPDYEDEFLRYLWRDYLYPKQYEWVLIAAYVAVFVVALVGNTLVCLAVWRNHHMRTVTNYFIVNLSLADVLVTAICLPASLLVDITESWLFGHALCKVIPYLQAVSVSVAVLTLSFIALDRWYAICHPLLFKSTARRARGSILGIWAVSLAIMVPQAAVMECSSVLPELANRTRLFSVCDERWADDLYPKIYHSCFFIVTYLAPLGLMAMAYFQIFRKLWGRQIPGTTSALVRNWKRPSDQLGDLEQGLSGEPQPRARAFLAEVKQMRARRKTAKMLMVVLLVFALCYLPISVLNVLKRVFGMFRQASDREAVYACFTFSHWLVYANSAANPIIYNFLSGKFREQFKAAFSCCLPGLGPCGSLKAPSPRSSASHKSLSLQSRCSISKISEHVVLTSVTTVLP
# Experimental: (§1) Radioligand Binding Assay
# (§2) For crude cell membrane preparations, cells (CHO, Chinese hamster ovary or HEK, human embryonic kidney) expressing human orexin 1 or human orexin 2 receptors, were washed with HEPES (10 mM, pH 7.5), scraped off the culture plates with the same buffer, and centrifuged at 4° C. for 5 min at 2500×g. The cell pellet was either stored at −80° C. or used directly. Before the experiments, cell membranes were re-suspended in binding assay buffer (10 mM HEPES, 0.5% (w/v) bovine serum albumin, pH 7.5) by homogenisation with a Polytron homogeniser at 50 Hz for 20 s. Cell membranes were also used as made available by commercial providers.
# (§3) Bound radioactivity was measured, and data were analysed with the program XLFIT or Graphpad Prism. Protein concentration was determined according to the Bradford/BioRad Protein Assay Kit.
# (§4) In competition experiments, cell homogenates (150 μl) were incubated in assay buffer (10 mM HEPES, pH 7.5, 0.5% (w/v) bovine serum albumin, 5 mM MgCl2, 1 mMCaCl2, and tween 0.05%) for 1 h at room temperature with about 1 nM of the radioligand [^3H]-SB649868, 66 Ci/mmole, 50 μl), and with various concentrations of compounds of the invention (50 μl) in triplicates; non-specific binding was determined in the presence of almorexant (10 μM). Reactions were terminated by vacuum filtration, 3 washes of ice cold wash buffer (Tris-HCl pH 7.4/10 mM, with NaCl 154 mM). Competition data is expressed in Table 1 as Kd [μM].
# [2] = biological target: T2, human orexin 2 receptor (Homo sapiens, UniProt O43614); assay: Calcium accumulation in cells (FLIPR), antagonism of orexin A, human orexin 2 receptor; type: cell-based; settings: calcium accumulation, antagonism of orexin A, Cheng-Prusoff corrected; read-out: FLIPR hOx2R Ki
# T2 construct: expressed in transfected cells
# T2 sequence (O43614 1-444): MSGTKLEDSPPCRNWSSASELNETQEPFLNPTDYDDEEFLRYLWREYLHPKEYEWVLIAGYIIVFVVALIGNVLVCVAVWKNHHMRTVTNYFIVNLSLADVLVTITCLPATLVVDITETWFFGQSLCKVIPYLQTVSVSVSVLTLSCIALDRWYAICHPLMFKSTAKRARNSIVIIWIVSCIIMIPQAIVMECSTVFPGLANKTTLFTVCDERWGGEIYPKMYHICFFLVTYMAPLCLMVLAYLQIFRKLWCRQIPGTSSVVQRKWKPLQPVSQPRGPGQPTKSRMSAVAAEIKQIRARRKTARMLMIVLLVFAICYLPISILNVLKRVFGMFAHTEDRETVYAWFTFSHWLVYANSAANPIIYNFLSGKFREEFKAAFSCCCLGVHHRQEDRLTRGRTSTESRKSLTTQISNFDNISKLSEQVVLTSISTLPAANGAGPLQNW
# [3] = biological target: T2, human orexin 2 receptor; assay: Radioligand binding assay ([3H]-SB649868 competition), human orexin 2 receptor; settings: radioligand [3H]-SB649868; read-out: Binding hOx2R Kd
# Experimental: as §1, §2, §3, §4
# [4] = biological target: T1, human orexin 1 receptor; assay: Calcium accumulation in cells (FLIPR), antagonism of orexin A, human orexin 1 receptor; type: cell-based; settings: for Ki: calcium accumulation, antagonism of orexin A, Cheng-Prusoff corrected, read-out: FLIPR hOx1R Ki; for inhibition at 10 µM: measured at a concentration of 10 μM of compound, read-out: FLIPR hOx1R % inhibition
SMILES,Kd [1],Ki [2],Kd [3],Ki [4],inhibition at 10 µM [4]
"COc1cc(C)nc(N2CC[C@]3(CCCN(Cc4c[nH]c5ccccc45)C3=O)C2)n1 (single isomer, unassigned) [Example 7.9]",12 nM,1.9 nM,12 nM,10 nM,
"COc1cc(C)nc(N2CC[C@@]3(CCCN(Cc4c[nH]c5ccccc45)C3=O)C2)n1 (single isomer, unassigned) [Example 7.10]",750 nM,14 nM,238 nM,139 nM,
"Cc1cc(C)nc(N2CCC3(CC2)NCCN(Cc2c[nH]c4ccc(F)cc24)C3=O)n1 [Example 1.4, 9-(4,6-Dimethylpyrimidin-2-yl)-4-((5-fluoro-1H-indol-3-yl)methyl)-1,4,9-triazaspiro[5.5]undecan-5-one]",770 nM,6 nM,17 nM,601 nM,
"COc1cccc(-c2nn(C)nc2CN2CCNC3(CCN(c4nc(C)cc(C)n4)CC3)C2=O)c1 [Example 1.5, 9-(4,6-Dimethylpyrimidin-2-yl)-4-((5-(3-methoxyphenyl)-2-methyl-2H-1,2,3-triazol-4-yl)methyl)-1,4,9-triazaspiro[5.5] undecan-5-one]",928 nM,7 nM,31 nM,1490 nM,
"COc1cc(C)nc(N2CCC3(CC2)NCCN(Cc2c[nH]c4ccccc24)C3=O)n1 [Example 1.8, 4-((1H-Indol-3-yl)methyl)-9-(4-methoxy-6-methylpyrimidin-2-yl)-1,4,9-triazaspiro[5.5] undecan-5-one]",679 nM,8 nM,19 nM,906 nM,
"COc1cccc(-c2ocnc2CN2CCNC3(CCN(c4nc(C)cc(C)n4)CC3)C2=O)c1 [Example 1.9, 9-(4,6-Dimethylpyrimidin-2-yl)-4-((5-(3-methoxyphenyl)oxazol-4-yl)methyl)-1,4,9-triazaspiro[5.5] undecan-5-one]",397 nM,4 nM,25 nM,230 nM,
"COc1cccc(-c2ocnc2CN2CCNC3(CCN(c4nccc(C)n4)CC3)C2=O)c1 [Example 1.10, 4-((5-(3-Methoxyphenyl)oxazol-4-yl)methyl)-9-(4-methyl-pyrimidin-2-yl)-1,4,9-triazaspiro[5.5] undecan-5-one]",3970 nM,84 nM,164 nM,2610 nM,
"COc1cccc(-c2ocnc2CN2CCNC3(CCN(c4nc(C)cc(C#N)n4)CC3)C2=O)c1 [Example 1.11, 2-(4-((5-(3-Methoxyphenyl)oxazol-4-yl)methyl)-5-oxo-1,4,9-triazaspiro[5.5]undecan-9-yl)-6-methylpyrimidine-4-carbonitrile]",2220 nM,10 nM,37 nM,2660 nM,
"COc1cccc(-c2ocnc2CN2CCNC3(CCN(c4nccc(OC)n4)CC3)C2=O)c1 [Example 1.12, 4-((5-(3-Methoxyphenyl)oxazol-4-yl)methyl)-9-(4-methoxy-pyrimidin-2-yl)-1,4,9-triazaspiro[5.5] undecan-5-one]",686 nM,65 nM,230 nM,621 nM,
"COc1cccc(-c2ocnc2CN2CCNC3(CCN(c4nc(C)cc(OC)n4)CC3)C2=O)c1 [Example 1.13, 9-(4-Methoxy-6-methylpyrimidin-2-yl)-4-((5-(3-methoxyphenyl)oxazol-4-yl)methyl)-1,4,9-triazaspiro[5.5] undecan-5-one]",82 nM,3 nM,200 nM,37 nM,
"COc1cccc(-c2oc(C)nc2CN2CCNC3(CCN(c4nc(C)cc(C#N)n4)CC3)C2=O)c1 [Example 1.16, 2-(4-((5-(3-Methoxyphenyl)-2-methyloxazol-4-yl)methyl)-5-oxo-1,4,9-triazaspiro[5.5]undecan-9-yl)-6-methylpyrimidine-4-carbonitrile]",,31 nM,188 nM,,35%
"COc1cccc(-c2sc(C)nc2CN2CCNC3(CCN(c4nc(C)cc(C#N)n4)CC3)C2=O)c1 [Example 1.25, 2-(4-((5-(3-Methoxyphenyl)-2-methylthiazol-4-yl)methyl)-5-oxo-1,4,9-triazaspiro[5.5]undecan-9-yl)-6-methylpyrimidine-4-carbonitrile]",,76 nM,394 nM,,31%
"COc1cncc(-c2cn(C)nc2CN2CCNC3(CCN(c4nc(C)cc(C)n4)CC3)C2=O)c1 [Example 1.55, 9-(4,6-Dimethyl-pyrimidin-2-yl)-4-((4-(5-methoxypyridin-3-yl)-1-methyl-1H-pyrazol-3-yl)methyl)-1,4,9-triazaspiro[5.5] undecan-5-one]",5870 nM,16 nM,162 nM,,
"COCc1noc(-c2ccccc2CN2CCNC3(CCN(c4nc(C)cc(C)n4)CC3)C2=O)n1 [Example 1.63, 9-(4,6-dimethyl-pyrimidin-2-yl)-4-(2-(3-(methoxymethyl)-1,2,4-oxadiazol-5-yl)benzyl)-1,4,9-triazaspiro[5.5] undecan-5-one]",,46 nM,252 nM,4080 nM,
"COCc1cccc(-c2nn(C)nc2CN2CCNC3(CCN(c4nc(C)cc(C)n4)CC3)C2=O)c1 [Example 1.76, 9-(4,6-dimethyl-pyrimidin-2-yl)-4-((5-(3-(methoxy-methyl)phenyl)-2-methyl-2H-1,2,3-triazol-4-yl)methyl)-1,4,9-triazaspiro[5.5] undecan-5-one]",,86 nM,174 nM,1640 nM,
"Cc1cc(C)nc(N2CCC3(CC2)OCCN(Cc2n[nH]nc2-c2ccccc2)C3=O)n1 [Example 2.14, 9-(4,6-Dimethylpyrimidin-2-yl)-4-((5-phenyl-2H-1,2,3-triazol-4-yl)methyl)-1-oxa-4,9-diazaspiro[5.5]undecan-5-one]",,50 nM,241 nM,2720 nM,
"Cc1cc(C)nc(N2CCC3(CCN(Cc4c[nH]c5ccccc45)C3=O)CC2)n1 [Example 3.1, 2-((1H-Indol-3-yl)methyl)-8-(4,6-dimethylpyrimidin-2-yl)-2,8-diazaspiro[4.5]decan-1-one]",,32 nM,228 nM,1900 nM,
"COc1cc(C)nc(N2CCC3(CCN(Cc4c[nH]c5ccccc45)C3=O)CC2)n1 [Example 3.18, 2-(1H-Indol-3-ylmethyl)-8-(4-methoxy-6-methyl-pyrimidin-2-yl)-2,8-diaza-spiro[4.5]decan-1-one]",,37 nM,1030 nM,1240 nM,
"COc1cc(C)nc(N2CCC3(CCN(Cc4n[nH]c5ccccc45)C3=O)CC2)n1 [Example 3.21, 2-((1H-indazol-3-yl)methyl)-8-(4-methoxy-6-methylpyrimidin-2-yl)-2,8-diazaspiro[4.5]decan-1-one]",,117 nM,699 nM,1010 nM,
"Cc1cncc(N2CCC3(CC2)COC(=O)N3Cc2cccc3[nH]ccc23)n1 [Example 8.25, 1-((1H-Indol-4-yl)methyl)-8-(6-methylpyrazin-2-yl)-3-oxa-1,8-diazaspiro[4.5]decan-2-one]",,675 nM,,,< 10%
O=C1CCC2(CCN(c3cnc4ccccc4n3)C2)N1Cc1cccc2[nH]ccc12 (centres unmarked) [Example 9.1],,1380 nM,,666 nM,
